The target of experiment [1] is T1, TAX-4 (C. elegans tax-4 CNG channel subunit) (Caenorhabditis elegans, UniProt Q03611).
T1 sequence (Q03611 1-733): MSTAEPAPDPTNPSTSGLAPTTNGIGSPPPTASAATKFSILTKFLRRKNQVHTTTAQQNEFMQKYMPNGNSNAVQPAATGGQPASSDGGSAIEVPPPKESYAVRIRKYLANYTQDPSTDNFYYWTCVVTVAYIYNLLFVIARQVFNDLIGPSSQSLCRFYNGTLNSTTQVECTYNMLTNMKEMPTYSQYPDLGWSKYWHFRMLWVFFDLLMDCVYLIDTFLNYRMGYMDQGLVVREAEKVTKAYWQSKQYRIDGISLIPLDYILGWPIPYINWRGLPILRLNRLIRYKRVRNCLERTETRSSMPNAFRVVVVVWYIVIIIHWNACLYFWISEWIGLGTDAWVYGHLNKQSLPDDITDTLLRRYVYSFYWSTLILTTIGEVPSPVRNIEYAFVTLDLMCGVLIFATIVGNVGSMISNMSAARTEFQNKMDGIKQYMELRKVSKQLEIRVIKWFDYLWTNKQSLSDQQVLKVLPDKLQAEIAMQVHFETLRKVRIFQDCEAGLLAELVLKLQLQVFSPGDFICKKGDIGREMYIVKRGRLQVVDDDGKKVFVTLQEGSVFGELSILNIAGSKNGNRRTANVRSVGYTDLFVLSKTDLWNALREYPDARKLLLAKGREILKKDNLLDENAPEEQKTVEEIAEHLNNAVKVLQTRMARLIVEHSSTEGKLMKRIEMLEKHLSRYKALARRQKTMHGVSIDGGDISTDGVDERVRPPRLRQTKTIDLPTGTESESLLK
The experiment can be described thus: inside-out patch macroscopic current, Hill fit. It counts as cell-based.

In experiment [2] the test system is RTL2. The experiment can be described thus: inside-out patch macroscopic current, Hill fit. It counts as cell-based, Bos taurus / Caenorhabditis elegans. Particulars: read-out: K 1/2; agonist; divalent-free solution pH 7.2; -80 or -100 mV; n = 4.
Experiment [3] concerns RTL. Kind of experiment: inside-out patch macroscopic and single-channel currents, Hill fit. The experiment is classed as cell-based, Bos taurus / Caenorhabditis elegans. The settings on record: read-out: K 1/2; agonist; divalent-free solution pH 7.2; -80 or -100 mV; n = 8.
Experiment [4] concerns RTB. The experiment can be described thus: inside-out patch macroscopic current, Hill fit. It counts as cell-based, Bos taurus / Caenorhabditis elegans. The settings on record: read-out: K 1/2; agonist; divalent-free solution pH 7.2; -80 or -100 mV; n = 5.
Experiment [5] relates to TRC. Kind of experiment: inside-out patch macroscopic current, Hill fit. Particulars: read-out: K 1/2; agonist; divalent-free solution pH 7.2; -80 or -100 mV; n = 4. The experiment is classed as cell-based, Caenorhabditis elegans / Bos taurus.
Experiment [6] concerns ROPTL2. The experiment can be described thus: inside-out patch macroscopic current, Hill fit. The experiment is classed as cell-based, Bos taurus / Caenorhabditis elegans / Ictalurus punctatus. Particulars: read-out: K 1/2; agonist; divalent-free solution pH 7.2; -80 or -100 mV; n = 4.
In experiment [7] the test system is RTL1. Kind of experiment: inside-out patch macroscopic current, Hill fit. The experiment is classed as cell-based, Bos taurus / Caenorhabditis elegans. The settings on record: read-out: K 1/2; agonist; divalent-free solution pH 7.2; -80 or -100 mV; n = 4.
The test system of experiment [8] is RTC. Kind of experiment: inside-out patch macroscopic current, Hill fit. The settings on record: read-out: K 1/2; agonist; divalent-free solution pH 7.2; -80 or -100 mV; n = 8. The experiment is classed as cell-based, Bos taurus / Caenorhabditis elegans.

These results are taken from publication PMC2222991 (The Journal of General Physiology, 1999).

Molecules are shown by their SMILES.

On to `Nc1nc2c(ncn2[C@@H]2O[C@@H]3COP(=O)(O)O[C@H]3[C@H]2O)c(=O)[nH]1` [cGMP], for which the EC50 in experiment [1] was 400 nM; in experiment [2] it was 4 µM; in experiment [3] it was 1000 nM; in experiment [4] it was 63 µM; in experiment [5] it was 4.7 µM; in experiment [6], 3000 nM. Also, the EC50 in experiment [7] was determined as 24 µM; in experiment [8] it was 1300 nM.
